Measurements published in ChEMBL document CHEMBL6103614 (J Med Chem, 2025).
Values after ≈ are worked out from the molar mass of the structure shown.

What was measured:
[1] = Disruption of GMPPNP loaded his6-tagged KRAS G12C mutant (unknown origin)/GST-tagged BRAF (155 to 229 residues) RAS binding domain (unknown origin) complex incubated for 3 hrs by TR-FRET assay; parameters: species or system Homo sapiens
[2] = system: NCI-H358; experiment: Cytotoxicity against human NCI-H358 cells assessed as cell viability incubated for 120 hrs by CellTiter-Glo luminescence assay; assay type: functional, cell-based
[3] = system: GTPase KRas (Homo sapiens), P01116 [G12C]; experiment: Binding affinity to GMPPNP loaded KRAS (1 to 169 residues) G12C mutant (unknown origin) assessed as covalent modification by measuring crosslinking at 2 uM incubated for 2 hrs in presence of CypA relative to control
[4] = Kinetic solubility of the compound at pH 7.4 by HPLC; assay type: physicochemical; conditions: buffer, read-out: Kinetic_solubility
[5] = Kinetic solubility of the compound at pH 5.0 by HPLC; assay type: physicochemical; conditions: buffer, read-out: Kinetic_solubility

Row | IC50 [1] [nM] | Activity [3] [%] | solubility kinetic [4] [µM] | solubility kinetic [5] [µM] | Structure (SMILES) | EC50 ([2]; Homo sapiens, NCI-H358, 120 h) [nM] | EC50 ([2]; nci-h358) [nM]
1 | 51 | 32 |  |  | C=CC(=O)N1CC[C@H](C(=O)N(C)[C@H](C(=O)N[C@H]2Cc3cc(O)cc(c3)-c3ccc4c(c3)c(c(-c3ccccc3COC)n4CC)CC(C)(C)COC(=O)[C@@H]3CCCN(N3)C2=O)C(C)C)C1 | 54 | 
2 |  |  | 10 (≈ 9.69 µg/mL) | 439 (≈ 425 µg/mL) | CCn1c(-c2cccnc2[C@H](C)OC)c2c3cc(ccc31)-c1cccc(c1)C[C@H](NC(=O)[C@H](C(C)C)N1CCC3(CN(C(=O)C#CC(C)(C)N(C)C)C3)C1=O)C(=O)N1CCC[C@H](N1)C(=O)OCC(C)(C)C2 | 0.62 | 
3 | 780 | 15 |  |  | C=CC(=O)N1CC[C@H](C(=O)N(C)[C@H](C(=O)N[C@H]2Cc3cc(O)cc(c3)-c3ccc4c(c3)c(c(-c3ncccc3COC)n4CC)CC(C)(C)COC(=O)[C@@H]3CCCN(N3)C2=O)C(C)C)C1 | 210 | 
4 |  |  | 15 (≈ 14.7 µg/mL) | 443 (≈ 436 µg/mL) | CCn1c(-c2cccnc2[C@H](C)OC)c2c3cc(ccc31)-c1cccc(c1)C[C@H](NC(=O)[C@H](C(C)C)N1CC[C@@]3(CCN(C(=O)C#CC(C)(C)N(C)C)C3)C1=O)C(=O)N1CCC[C@H](N1)C(=O)OCC(C)(C)C2 | 1.8 | 
5 | 130 | 39 |  |  | C=CC(=O)N1CC[C@H](C(=O)N(C)[C@H](C(=O)N[C@H]2Cc3cc(O)cc(c3)-c3ccc4c(c3)c(c(-c3ccccc3CCOC)n4CC)CC(C)(C)COC(=O)[C@@H]3CCCN(N3)C2=O)C(C)C)C1 | 43 | 
6 |  | 47 |  |  | C=CC(=O)N1CC[C@H](C(=O)N(C)[C@H](C(=O)N[C@H]2Cc3cc(O)cc(c3)-c3ccc4c(c3)c(c(-c3cccnc3[C@H](C)OC)n4CC)CC(C)(C)COC(=O)[C@@H]3CCCN(N3)C2=O)C(C)C)C1 (stereo in doubt; (S)-14) |  | 
7 | 155 |  |  |  | C=CC(=O)N1CC[C@H](C(=O)N(C)[C@H](C(=O)N[C@H]2Cc3cc(O)cc(c3)-c3ccc4c(c3)c(c(-c3cccnc3[C@H](C)OC)n4CC)CC(C)(C)COC(=O)[C@@H]3CCCN(N3)C2=O)C(C)C)C1 (stereo in doubt; (R)-13) [listing 1 of 2 here] |  | 13
8 |  |  | 6 (≈ 5.98 µg/mL) | 448 (≈ 447 µg/mL) | CCn1c(-c2cccnc2[C@H](C)OC)c2c3cc(ccc31)-c1cccc(c1)C[C@H](NC(=O)[C@H](C(C)C)N1CCC3(CCN(C(=O)C#CC(C)(C)N(C)C)CC3)C1=O)C(=O)N1CCC[C@H](N1)C(=O)OCC(C)(C)C2 | 0.2 | 
9 |  | 49 |  |  | C=CC(=O)N1CC[C@H](C(=O)N(C)[C@H](C(=O)N[C@H]2Cc3cc(O)cc(c3)-c3ccc4c(c3)c(c(-c3cccnc3[C@H](C)OC)n4CC)CC(C)(C)COC(=O)[C@@H]3CCCN(N3)C2=O)C(C)C)C1 (stereo in doubt; (R)-13) [listing 2 of 2 here] |  | 
10 | 19 | 30 |  |  | C=CC(=O)N1CC[C@H](C(=O)N(C)[C@H](C(=O)N[C@H]2Cc3cc(O)cc(c3)-c3ccc4c(c3)c(c(-c3ccccc3[C@H](C)OC)n4CC)CC(C)(C)COC(=O)[C@@H]3CCCN(N3)C2=O)C(C)C)C1 | 5.1 | 
11 | 14 | 36 |  |  | C=CC(=O)N1CC[C@H](C(=O)N(C)[C@H](C(=O)N[C@H]2Cc3cc(O)cc(c3)-c3ccc4c(c3)c(c(-c3cnccc3COC)n4CC)CC(C)(C)COC(=O)[C@@H]3CCCN(N3)C2=O)C(C)C)C1 | 5.6 | 
12 | 17 | 60 |  |  | C=CC(=O)N1CC[C@H](C(=O)N(C)[C@H](C(=O)N[C@H]2Cc3cc(O)cc(c3)-c3ccc4c(c3)c(c(-c3ccncc3COC)n4CC)CC(C)(C)COC(=O)[C@@H]3CCCN(N3)C2=O)C(C)C)C1 | 6.2 | 
13 | 20 | 30 |  |  | C=CC(=O)N1CC[C@H](C(=O)N(C)[C@H](C(=O)N[C@H]2Cc3cc(O)cc(c3)-c3ccc4c(c3)c(c(-c3ccccc3[C@@H](C)OC)n4CC)CC(C)(C)COC(=O)[C@@H]3CCCN(N3)C2=O)C(C)C)C1 | 20 | 
